Reference: patent US20260166128A1, “HUMAN AMYLIN ANALOG, AND DERIVATIVE THEREOF AND USE THEREOF” (priority 2022, published 2026)
Numbered stars: 1 amine (or outer) side, 2 acyl side, 3 side chain; on linkers, the order of the positions; unused ones are H or OH. Bridge positions count the residues as written; N and C are the ends. Square brackets hold non-standard residues; d marks the D form. Side chains are listed from the residue outwards. Peptide text beside a SMILES is read from it. * marks the point of attachment. C20 diacid = O=C(O)CCCCCCCCCCCCCCCCCCC(=O)*; C18 diacid = O=C(O)CCCCCCCCCCCCCCCCC(=O)*; γGlu = O=C(O)[C@H](CCC(=O)[*:2])N[*:1]; Hyp = O=C(O)[C@@H]1C[C@@H](O)CN1; AEEA = NCCOCCOCC(=O)O

Molecular target: T1, human amylin receptor (Homo sapiens, UniProt O60896+P30988)
T1 construct: host or cells: CHO-K1/Ga15/AMY3 cells, further stably transfected with a CRE-luciferase plasmid
T1 sequence (P30988 25-474): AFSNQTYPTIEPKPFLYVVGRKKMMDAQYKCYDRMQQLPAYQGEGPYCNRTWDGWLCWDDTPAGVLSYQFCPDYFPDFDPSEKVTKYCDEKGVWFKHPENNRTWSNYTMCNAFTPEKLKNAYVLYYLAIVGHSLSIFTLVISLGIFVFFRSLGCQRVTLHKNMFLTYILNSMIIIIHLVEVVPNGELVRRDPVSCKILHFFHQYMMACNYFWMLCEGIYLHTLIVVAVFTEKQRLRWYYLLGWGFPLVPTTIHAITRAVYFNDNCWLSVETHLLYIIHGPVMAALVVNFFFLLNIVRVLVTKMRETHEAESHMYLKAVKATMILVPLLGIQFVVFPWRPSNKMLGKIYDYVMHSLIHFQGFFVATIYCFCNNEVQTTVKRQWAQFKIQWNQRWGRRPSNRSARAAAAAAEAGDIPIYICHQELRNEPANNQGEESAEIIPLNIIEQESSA
T1 sequence (O60896 24-148 partner): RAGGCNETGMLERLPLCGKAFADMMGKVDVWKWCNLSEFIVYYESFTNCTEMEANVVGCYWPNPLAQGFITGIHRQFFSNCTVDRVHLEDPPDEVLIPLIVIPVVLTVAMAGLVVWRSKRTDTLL
Experiment: Luciferase assay of amylin derivatives in amylin receptor/CRE-luc CHO cell line
Assay type: cell-based
Settings: CHO-K1/Ga15/AMY3 CRE-luc cells, 24 hours incubation, F12 medium containing 10% FBS; read-out: EC50
Procedure: The experiment was intended to detect the activity or efficacy of the amylin derivatives on a human amylin receptor in vitro by luciferase assay.
50 μL of growth medium (F12 medium containing 10% FBS) was added into each well of a white 96-well plate, and the stably transfected amylin/CRE-lue CHO cells were inoculated into the white 96-well plate at a density of about 20,000 cells/well for activity determination.

Row | SMILES | EC50
1 | CC[C@H](C)[C@H](NC(=O)[C@@H]1CCCN1C(=O)[C@H](CCCCNC(=O)COCCOCCNC(=O)COCCOCCNC(=O)CC[C@H](NC(=O)CCCCCCCCCCCCCCCCC(=O)O)C(=O)O)NC(=O)[C@H](CC(C)C)NC(=O)[C@H](CC(N)=O)NC(=O)[C@H](CC(N)=O)NC(=O)[C@H](CO)NC(=O)[C@H](CO)NC(=O)[C@H](Cc1c[nH]cn1)NC(=O)[C@H](CCCNC(=N)N)NC(=O)[C@H](CC(C)C)NC(=O)[C@H](Cc1ccccc1)NC(=O)[C@H](CC(=O)O)NC(=O)[C@H](C)NC(=O)[C@H](CC(C)C)NC(=O)[C@H](CCCNC(=N)N)NC(=O)[C@H](CCC(N)=O)NC(=O)[C@@H](NC(=O)[C@H](C)NC(=O)[C@@H]1CSSC[C@H](NC(=O)[C@@H](N)CCCNC(=N)N)C(=O)N[C@@H](CC(N)=O)C(=O)N[C@@H]([C@@H](C)O)C(=O)N[C@@H](C)C(=O)N[C@@H]([C@@H](C)O)C(=O)N1)[C@@H](C)O)C(=O)N[C@@H](CC(C)C)C(=O)N1CCC[C@H]1C(=O)N1CCC[C@H]1C(=O)N[C@H](C(=O)N[C@@H](CC(N)=O)C(=O)N[C@H](C(=O)NCC(=O)N[C@@H](CO)C(=O)N[C@@H](CC(N)=O)C(=O)N[C@H](C(=O)N1C[C@H](O)C[C@H]1C(N)=O)[C@@H](C)O)C(C)C)[C@@H](C)O [PD109] (H-RCNTATCATQRLADFLRHSSNNLK([AEEA-AEEA-γGlu-C18 diacid])PILPPTNVGSNT[Hyp]-NH2; disulfide 2-7) | 0.01 nM
2 | CC[C@H](C)[C@H](NC(=O)[C@@H]1CCCN1C(=O)CNC(=O)[C@H](CCCCNC(=O)COCCOCCNC(=O)CC[C@H](NC(=O)CCCCCCCCCCCCCCCCCCC(=O)O)C(=O)O)NC(=O)[C@H](CC(N)=O)NC(=O)[C@H](CC(N)=O)NC(=O)[C@H](CO)NC(=O)[C@H](CO)NC(=O)[C@H](Cc1c[nH]cn1)NC(=O)[C@H](CCCNC(=N)N)NC(=O)[C@H](CC(C)C)NC(=O)[C@H](Cc1ccccc1)NC(=O)[C@H](CC(=O)O)NC(=O)[C@H](C)NC(=O)[C@H](CC(C)C)NC(=O)[C@H](CCCNC(=N)N)NC(=O)[C@H](CCC(N)=O)NC(=O)[C@@H](NC(=O)[C@H](C)NC(=O)[C@@H]1CSSC[C@H](NC(=O)[C@@H](N)CCCNC(=N)N)C(=O)N[C@@H](CC(N)=O)C(=O)N[C@@H]([C@@H](C)O)C(=O)N[C@@H](C)C(=O)N[C@@H]([C@@H](C)O)C(=O)N1)[C@@H](C)O)C(=O)N[C@@H](CC(C)C)C(=O)N1CCC[C@H]1C(=O)N1CCC[C@H]1C(=O)N[C@H](C(=O)N[C@@H](CC(N)=O)C(=O)N[C@H](C(=O)NCC(=O)N[C@@H](CO)C(=O)N[C@@H](CC(N)=O)C(=O)N[C@H](C(=O)N1C[C@H](O)C[C@H]1C(N)=O)[C@@H](C)O)C(C)C)[C@@H](C)O [PD110] (H-RCNTATCATQRLADFLRHSSNNK([AEEA-γGlu-C20 diacid])GPILPPTNVGSNT[Hyp]-NH2; disulfide 2-7) | 0.039 nM
3 | CC[C@H](C)[C@H](NC(=O)[C@@H]1CCCN1C(=O)CNC(=O)[C@H](CCCCNC(=O)COCCOCCNC(=O)CC[C@H](NC(=O)CCCCCCCCCCCCCCCCC(=O)O)C(=O)O)NC(=O)[C@H](CC(N)=O)NC(=O)[C@H](CC(N)=O)NC(=O)[C@H](CO)NC(=O)[C@H](CO)NC(=O)[C@H](Cc1c[nH]cn1)NC(=O)[C@H](CCCNC(=N)N)NC(=O)[C@H](CC(C)C)NC(=O)[C@H](Cc1ccccc1)NC(=O)[C@H](CC(=O)O)NC(=O)[C@H](C)NC(=O)[C@H](CC(C)C)NC(=O)[C@H](CCCNC(=N)N)NC(=O)[C@H](CCC(N)=O)NC(=O)[C@@H](NC(=O)[C@H](C)NC(=O)[C@@H]1CSSC[C@H](NC(=O)[C@@H](N)CCCNC(=N)N)C(=O)N[C@@H](CC(N)=O)C(=O)N[C@@H]([C@@H](C)O)C(=O)N[C@@H](C)C(=O)N[C@@H]([C@@H](C)O)C(=O)N1)[C@@H](C)O)C(=O)N[C@@H](CC(C)C)C(=O)N1CCC[C@H]1C(=O)N1CCC[C@H]1C(=O)N[C@H](C(=O)N[C@@H](CC(N)=O)C(=O)N[C@H](C(=O)NCC(=O)N[C@@H](CO)C(=O)N[C@@H](CC(N)=O)C(=O)N[C@H](C(=O)N1C[C@H](O)C[C@H]1C(N)=O)[C@@H](C)O)C(C)C)[C@@H](C)O [PD111] (H-RCNTATCATQRLADFLRHSSNNK([AEEA-γGlu-C18 diacid])GPILPPTNVGSNT[Hyp]-NH2; disulfide 2-7) | 0.008 nM
4 | CC[C@H](C)[C@H](NC(=O)[C@@H]1CCCN1C(=O)CNC(=O)[C@H](CC(C)C)NC(=O)[C@H](CCCCNC(=O)COCCOCCNC(=O)CC[C@H](NC(=O)CCCCCCCCCCCCCCCCCCC(=O)O)C(=O)O)NC(=O)[C@H](CC(N)=O)NC(=O)[C@H](CO)NC(=O)[C@H](CO)NC(=O)[C@H](Cc1c[nH]cn1)NC(=O)[C@H](CCCNC(=N)N)NC(=O)[C@H](CC(C)C)NC(=O)[C@H](Cc1ccccc1)NC(=O)[C@H](CC(=O)O)NC(=O)[C@H](C)NC(=O)[C@H](CC(C)C)NC(=O)[C@H](CCCNC(=N)N)NC(=O)[C@H](CCC(N)=O)NC(=O)[C@@H](NC(=O)[C@H](C)NC(=O)[C@@H]1CSSC[C@H](NC(=O)[C@@H](N)CCCNC(=N)N)C(=O)N[C@@H](CC(N)=O)C(=O)N[C@@H]([C@@H](C)O)C(=O)N[C@@H](C)C(=O)N[C@@H]([C@@H](C)O)C(=O)N1)[C@@H](C)O)C(=O)N[C@@H](CC(C)C)C(=O)N1CCC[C@H]1C(=O)N1CCC[C@H]1C(=O)N[C@H](C(=O)N[C@@H](CC(N)=O)C(=O)N[C@H](C(=O)NCC(=O)N[C@@H](CO)C(=O)N[C@@H](CC(N)=O)C(=O)N[C@H](C(=O)N1C[C@H](O)C[C@H]1C(N)=O)[C@@H](C)O)C(C)C)[C@@H](C)O [PD112] (H-RCNTATCATQRLADFLRHSSNK([AEEA-γGlu-C20 diacid])LGPILPPTNVGSNT[Hyp]-NH2; disulfide 2-7) | 0.03 nM
5 | CC[C@H](C)[C@H](NC(=O)[C@@H]1CCCN1C(=O)CNC(=O)[C@H](CC(C)C)NC(=O)[C@H](CCCCNC(=O)COCCOCCNC(=O)CC[C@H](NC(=O)CCCCCCCCCCCCCCCCC(=O)O)C(=O)O)NC(=O)[C@H](CC(N)=O)NC(=O)[C@H](CO)NC(=O)[C@H](CO)NC(=O)[C@H](Cc1c[nH]cn1)NC(=O)[C@H](CCCNC(=N)N)NC(=O)[C@H](CC(C)C)NC(=O)[C@H](Cc1ccccc1)NC(=O)[C@H](CC(=O)O)NC(=O)[C@H](C)NC(=O)[C@H](CC(C)C)NC(=O)[C@H](CCCNC(=N)N)NC(=O)[C@H](CCC(N)=O)NC(=O)[C@@H](NC(=O)[C@H](C)NC(=O)[C@@H]1CSSC[C@H](NC(=O)[C@@H](N)CCCNC(=N)N)C(=O)N[C@@H](CC(N)=O)C(=O)N[C@@H]([C@@H](C)O)C(=O)N[C@@H](C)C(=O)N[C@@H]([C@@H](C)O)C(=O)N1)[C@@H](C)O)C(=O)N[C@@H](CC(C)C)C(=O)N1CCC[C@H]1C(=O)N1CCC[C@H]1C(=O)N[C@H](C(=O)N[C@@H](CC(N)=O)C(=O)N[C@H](C(=O)NCC(=O)N[C@@H](CO)C(=O)N[C@@H](CC(N)=O)C(=O)N[C@H](C(=O)N1C[C@H](O)C[C@H]1C(N)=O)[C@@H](C)O)C(C)C)[C@@H](C)O [PD113] (H-RCNTATCATQRLADFLRHSSNK([AEEA-γGlu-C18 diacid])LGPILPPTNVGSNT[Hyp]-NH2; disulfide 2-7) | 0.017 nM
